In patent US20110223675A1, “DRUG RELEASE MEANS FROM LIPOSOMES AND METHOD FOR EVALUATING RELEASABILITY” (TERUMO KABUSHIKI KAISHA, priority 2008, published 2011):
Where a name gives a salt, the structure may show the parent alone.

Test: drug releasability test of liposomes in a shift reagent solution
Format: physicochemical
Protocol: After 1:10 dilution of the sample with a stop solution, the drug, not contained in the liposomes, was separated by ultracentrifugation to provide a sample solution. Separately, 100 μl of a VCR aqueous solution having a different concentration was taken out, to which 900 μl of water was added. Moreover, this solution was diluted with water at 1:10 to provide a reference solution for calibration curve. The sample solution and reference solution were subjected to quantitative determination under the HPLC conditions indicated before with respect to the VCR determination except that an injected amount was at 50 μl only in this determination method.
After dilution of the sample with a stop solution at 1:10, the drug, not contained in the liposomes, was separated by ultracentrifugation. 1 ml of a 0.1 mol/l dihydrogen sodium phosphate solution having a pH of 3.0 was added to and mixed with 1 ml of a supernatant of the sample obtained after the ultracentrifugation to provide a sample solution. Separately, 1 ml of a 0.1 mol/l dihydrogen sodium phosphate solution having a pH of 3.0 was added to and mixed with 1 ml of/a DXR solution having a different concentration to prepare a reference solution for calibration curve. The sample solution and reference solution were subjected to measurement under HPLC conditions indicated with respect to the DXR determination.
Release rate (%)=amount of released drug/total drug amount×100
Ammonium acetate was dissolved so as to make ammonium ion concentrations of 5, 20, 25, 50 and 100 mM and the pH of the solutions was adjusted to 7.0 by use of a 0.1 M sodium hydroxide test solution. Moreover, sodium chloride was added to the solutions so that an osmotic pressure thereof was made at 300 mOsm, thereby providing shift reagent solutions.
The liposomes shown in Preparatory Example 1 were diluted with the shift reagent solution at 1:10 and heated to 37° C. 2.5, 5, 10, 15 and 30 minutes after commencement of the heating, samples were taken out. It is to be noted that the samples were stored under ice cooling before use. The quantitative determination of released VCR was made according to the method described hereinbefore.
Ammonium acetate was dissolved so as to make an ammonium ion concentration of 50 mM, followed by controlling the pH of the solution at 4.0, 5.0, 6.0, 7.0 and 8.0 by use of a 1 M sodium hydroxide test solution. […]
The liposomes shown in Preparatory Example 1 were diluted with the shift reagent solution at 1:10 and heated at 37° C. […] The released VCR was quantitatively determined by the method set out hereinbefore. […]
The liposomes shown in Preparatory Example 1 were diluted with the shift reagent solution at 1:10 and heated at 37° C. […] The quantitative determination of the released VCR was made according to the method set out hereinbefore. […]

| Compound | VCR releasability versus pH of shift reagent solution (LIP1, 50 mM ammonium acetate, pH 4.0-8.0, 300 mOsm, 37° C.) | VCR release versus osmotic pressure of shift reagent solution (LIP1, 50 mM ammonium acetate, pH 7.0, 100-750 mOsm, 37° C.) | VCR release with amino compounds as shift reagent (LIP2, 50 mM 2-aminoethanol, ethylenediamine or diethylamine, pH 7.4, 37° C.) | DXR releasability (250 mM ethylenediamine/phosphate buffer solution pH 7.4, 37° C., 0-4 hours) |
| --- | --- | --- | --- | --- |
| CC[C@]1(O)C[C@H]2CN(CCc3c([nH]c4ccccc34)[C@@](C(=O)OC)(c3cc4c(cc3OC)N(C=O)[C@H]3[C@@](O)(C(=O)OC)[C@H](OC(C)=O)[C@]5(CC)C=CCN6CC[C@]43[C@@H]65)C2)C1 [VCR, Vincristine sulfate] | promoted with increasing pH | a smaller osmotic pressure of the shift reagent solution leads to more promoted release | can be released |  |
| COc1cccc2c1C(=O)c1c(O)c3c(c(O)c1C2=O)C[C@@](O)(C(=O)CO)C[C@@H]3O[C@H]1C[C@H](N)[C@H](O)[C@H](C)O1 [DXR, Doxorubicin hydrochloride] |  |  |  | could be released |
